Results from US20110183969A1, “ANTIFUNGAL COMBINATION THERAPY” (priority 2008, published 2011).
Converted amounts (≈) assume the structure as drawn.

How the values were obtained:
Test in all cases: MIC (YAG medium)
Type in all cases: cell-based
[1] = tested on: Aspergillus fumigatus AF293; settings: YAG medium, MIC banded into grades, AF293; for MIC: Aspergillus fumigatus, read-out: MIC A. fumigatus (grade)
Procedure, shortened: (§1)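 MIC in mg/L, defined as >70% growth inhibition relative to drug-free control by optical density at 485 nm. Plates held 24 hrs at 35° C with Aspergillus inocula of 1-2×10^4 cfu/mL in YAG medium (1% glucose, 1% ammonium chloride, 0.5% yeast extract). Compounds tested at 50-0.05 mg/L, repeated at 0.5-0.0005 mg/L where needed.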

[2] = tested on: Aspergillus fumigatus AF210; settings: YAG medium, MIC banded into grades, AF210; for MIC: Aspergillus fumigatus, read-out: MIC A. fumigatus 210 (grade)
Procedure, shortened: as §1

[3] = tested on: Aspergillus terreus AT4; settings: YAG medium, MIC banded into grades, AT4; for MIC: Aspergillus terreus, read-out: MIC A. terreus (grade)
Procedure, shortened: as §1

[4] = tested on: Aspergillus flavus; settings: YAG medium, MIC banded into grades; for MIC: Aspergillus flavus, read-out: MIC A. flavus (grade)
Procedure, shortened: as §1

[5] = tested on: Aspergillus niger; settings: YAG medium, MIC banded into grades; for MIC: Aspergillus niger, read-out: MIC A. niger (grade)
Procedure, shortened: as §1

[6] = tested on: Aspergillus terreus AT49; settings: YAG medium, MIC banded into grades, AT49; for MIC: Aspergillus terreus, read-out: MIC A. terreus 49 (grade)
Procedure, shortened: as §1

| Structure (SMILES) | MIC [1] [µg/mL] | MIC [2] [µg/mL] | MIC [3] [µg/mL] | MIC [4] [µg/mL] | MIC [5] [µg/mL] | MIC [6] [µg/mL] | MIC A. fumigatus (grade) [1] | MIC A. fumigatus 210 (grade) [2] | MIC A. terreus (grade) [3] | MIC A. flavus (grade) [4] | MIC A. niger (grade) [5] | MIC A. terreus 49 (grade) [6] |
| --- | --- | --- | --- | --- | --- | --- | --- | --- | --- | --- | --- | --- |
| Cc1cc(OCCOc2ccc(NC(=O)C(=O)c3c(-c4ccccc4)cc4ccccn34)cc2)cc(C)n1 [Example 71, N-{4-[2-(2,6-Dimethyl-pyridin-4-yloxy)-ethoxy]-phenyl}-2-oxo-2-(2-phenyl-indolizin-3-yl)-acetamide] | < 1 | < 1 | < 1 | 1 to 10 (≈ 1.98 to 19.8 µM) | 1 to 10 (≈ 1.98 to 19.8 µM) | < 1 |  |  |  |  |  |  |
| Cc1cc(C)nc(CCCCc2ccc(NC(=O)C(=O)c3c(-c4ccccc4)cc4ccccn34)cc2)c1 [Example 72, N-{4-[4-(4,6-Dimethyl-pyridin-2-yl)-butyl]-phenyl}-2-oxo-2-(2-phenyl-indolizin-3-yl)-acetamide] | < 1 | < 1 | < 1 | < 1 | < 1 | < 1 |  |  |  |  |  |  |
| O=C(Nc1ccc(N2CCN(c3ccc(CN4CCOCC4)cn3)CC2)cc1)C(=O)c1c(-c2ccccc2)cc2ccccn12 [Example 77, N-{4-[4-(5-morpholin-4-yl-methyl-pyridin-2-yl)-piperazin-1-yl]-phenyl}-2-oxo-2-(2-phenyl-indolizin-3-yl)-acetamide] |  |  |  |  |  |  | 3 (A grade of 3 represents an MIC of less than 1 mg/L) | 3 (A grade of 3 represents an MIC of less than 1 mg/L) | 3 (A grade of 3 represents an MIC of less than 1 mg/L) | 3 (A grade of 3 represents an MIC of less than 1 mg/L) | 3 (A grade of 3 represents an MIC of less than 1 mg/L) | 3 (A grade of 3 represents an MIC of less than 1 mg/L) |
| Cc1cc(C)nc(N(C)CCNc2ccc(NC(=O)C(=O)c3c(-c4ccccc4)cc4ccccn34)cc2)c1 [Example 78, N-(4-{2-[(4,6-Dimethyl-pyridin-2-yl)-methyl-amino]-ethylamino}-phenyl)-2-oxo-2-(2-phenyl-indolizin-3-yl)-acetamide] | < 1 | < 1 | < 1 | < 1 | < 1 | < 1 |  |  |  |  |  |  |
| Cc1cc(C)nc(N2CCC(O)(c3ccc(NC(=O)C(=O)c4c(-c5ccccc5)cc5ccccn45)cc3)CC2)c1 [Example 79, N-[4-(4-hydroxy-4′,6′-dimethyl-3,4,5,6-tetrahydro-2H-[1,2′]-bipyridinyl-4-yl)-phenyl]-2-oxo-2-(2-phenyl-indolizin-3-yl)-acetamide] | > 10 | > 10 | > 10 | > 10 | > 10 | > 10 |  |  |  |  |  |  |
| Cc1cc(C)nc(N2CCN(c3ccc(NC(=O)C(=O)c4c(-c5ccccc5)cc5ccccn45)c(C)c3)CC2)c1 [Example 80, N-{4-[4-(4,6-Dimethyl-pyridin-2-yl)-piperazin-1-yl]-2-methyl-phenyl}-2-oxo-2-(2-phenyl-indolizin-3-yl)-acetamide] | < 1 | < 1 | < 1 | < 1 | < 1 | < 1 |  |  |  |  |  |  |
| COCc1cc(NC(=O)C(=O)c2c(-c3ccccc3)cc3ccccn23)ccc1N1CCN(c2cc(C)cc(C)n2)CC1 [Example 81, N-{4-[4-(4,6-Dimethyl-pyridin-2-yl)-piperazin-1-yl]-3-methoxymethyl-phenyl}-2-oxo-2-(2-phenyl-indolizin-3-yl)-acetamide] | < 1 | < 1 | < 1 | < 1 | < 1 | < 1 |  |  |  |  |  |  |
| Cc1cc(C)nc(N2CCN(c3ccc(NC(=O)C(=O)c4c(-c5ccccc5)cc5ccccn45)cc3C)CC2)c1 [Example 82, N-{4-[4-(4,6-Dimethyl-pyridin-2-yl)-piperazin-1-yl]-3-methyl-phenyl}-2-oxo-2-(2-phenyl-indolizin-3-yl)-acetamide] | < 1 | < 1 | < 1 | < 1 | < 1 | < 1 |  |  |  |  |  |  |
| COCc1cc(N2CCN(c3cc(C)cc(C)n3)CC2)ccc1NC(=O)C(=O)c1c(-c2ccccc2)cc2ccccn12 [Example 83, N-{4-[4-(4,6-Dimethyl-pyridin-2-yl)-piperazin-1-yl]-2-methoxymethyl-phenyl}-2-oxo-2-(2-phenyl-indolizin-3-yl)-acetamide] | < 1 | < 1 | < 1 | < 1 | < 1 | < 1 |  |  |  |  |  |  |
| Cc1cc(C)nc(N2CCN(c3ccc(NC(=O)C(=O)c4c(-c5ccccc5)cc5ccccn45)cc3C(=O)O)CC2)c1 [Example 84, 2-[4-(4,6-Dimethyl-pyridin-2-yl)-piperazin-1-yl]-5-[2-oxo-2-(2-phenyl-indolizin-3-yl)-acetylamino]-benzoic acid] | < 1 | 1 to 10 (≈ 1.74 to 17.4 µM) | 1 to 10 (≈ 1.74 to 17.4 µM) | < 1 | 1 to 10 (≈ 1.74 to 17.4 µM) | 1 to 10 (≈ 1.74 to 17.4 µM) |  |  |  |  |  |  |
| O=C(Nc1ccc(-c2cocn2)cc1)C(=O)c1c(-c2ccc(-c3ccccc3)cc2)cc2ccccn12 [Example 85, 2-(2-Biphenyl-4-yl-indolizin-3-yl)-N-(4-oxazol-4-yl-phenyl)-2-oxo-acetamide] | > 10 | > 10 | < 1 | < 1 | > 10 | < 1 |  |  |  |  |  |  |
| O=C(Nc1ccc(NCCOc2ccccn2)cc1)C(=O)c1c(-c2ccccc2)cc2ccccn12 [Example 90, 2-Oxo-2-(2-phenyl-indolizin-3-yl)-N-{4-[2-(pyridin-2-yloxy)-ethylamino]-phenyl}-acetamide] | < 1 | < 1 | < 1 | < 1 | < 1 | < 1 |  |  |  |  |  |  |

Continued, in another order:

| MIC [1] [µg/mL] | MIC [2] [µg/mL] | MIC [3] [µg/mL] | MIC [4] [µg/mL] | MIC [5] [µg/mL] | MIC [6] [µg/mL] | Structure (SMILES) | MIC A. fumigatus (grade) [1] | MIC A. fumigatus 210 (grade) [2] | MIC A. terreus (grade) [3] | MIC A. flavus (grade) [4] | MIC A. niger (grade) [5] | MIC A. terreus 49 (grade) [6] |
| --- | --- | --- | --- | --- | --- | --- | --- | --- | --- | --- | --- | --- |
| < 1 | < 1 | < 1 | < 1 | < 1 | < 1 | CCc1cccc(N2CCN(c3ccc(NC(=O)C(=O)c4c(-c5ccccc5)cc5ccccn45)cc3)CC2)n1 [Example 73, N-{4-[4-(6-ethyl-pyridin-2-yl)-piperazin-1-yl]-phenyl}-2-oxo-2-(2-phenyl-indolizin-3-yl)-acetamide] |  |  |  |  |  |  |
| < 1 | < 1 | < 1 | < 1 | < 1 | < 1 | Cc1ccc(N2CCN(c3ccc(NC(=O)C(=O)c4c(-c5ccccc5)cc5ccccn45)cc3)CC2)nc1 [Example 74, N-{4-[4-(5-Methyl-pyridin-2-yl)-piperazin-1-yl]-phenyl}-2-oxo-2-(2-phenyl-indolizin-3-yl)-acetamide] |  |  |  |  |  |  |
| < 1 | < 1 | < 1 | < 1 | < 1 | < 1 | CCc1ccnc(N2CCN(c3ccc(NC(=O)C(=O)c4c(-c5ccccc5)cc5ccccn45)cc3)CC2)c1 [Example 75, N-{4-[4-(4-ethyl-pyridin-2-yl)-piperazin-1-yl]-phenyl}-2-oxo-2-(2-phenyl-indolizin-3-yl)-acetamide] |  |  |  |  |  |  |
| < 1 | < 1 | < 1 | < 1 | < 1 | < 1 | COCCOCCOc1cc(C)nc(N2CCN(c3ccc(NC(=O)C(=O)c4c(-c5ccccc5)cc5ccccn45)cc3)CC2)c1 [Example 76, N-[4-(4-{4-[2-(2-methoxy-ethoxy)-ethoxy]-6-methyl-pyridin-2-yl}-piperazin-1-yl)-phenyl]-2-oxo-2-(2-phenyl-indolizin-3-yl)-acetamide] |  |  |  |  |  |  |
| < 1 | 1 to 10 (≈ 1.65 to 16.5 µM) | 1 to 10 (≈ 1.65 to 16.5 µM) | < 1 | 1 to 10 (≈ 1.65 to 16.5 µM) | 1 to 10 (≈ 1.65 to 16.5 µM) | O=C(Nc1ccc(N2CCN(c3cccc(N(CCO)CCO)n3)CC2)cc1)C(=O)c1c(-c2ccccc2)cc2ccccn12 [Example 86, N-[4-(4-{6-[Bis-(2-hydroxy-ethyl)-amino]-pyridin-2-yl}-piperazin-1-yl)-phenyl]-2-oxo-2-[2-phenyl-indolizin-3-yl)-acetamide] |  |  |  |  |  |  |
| < 1 | 1 to 10 (≈ 1.78 to 17.8 µM) | 1 to 10 (≈ 1.78 to 17.8 µM) | < 1 | > 10 | < 1 | O=C(Nc1ccc(N2CCN(c3cccc(NCCO)n3)CC2)cc1)C(=O)c1c(-c2ccccc2)cc2ccccn12 [Example 87, N-(4-{4-[6-(2-hydroxyethylamino)-pyridin-2-yl]-piperazin-1-yl}-phenyl)-2-oxo-2-(2-phenyl-indolizin-3-yl)-acetamide] |  |  |  |  |  |  |
| < 1 | < 1 | < 1 | < 1 | < 1 | < 1 | O=C(Nc1ccc(N2CCN(c3cccc(CCO)n3)CC2)cc1)C(=O)c1c(-c2ccccc2)cc2ccccn12 [Example 88, N-(4-{4-[6-(2-hydroxy-ethyl)-pyridin-2-yl]-piperazin-1-yl}-phenyl)-2-oxo-2-(2-phenyl-indolizin-3-yl)-acetamide] |  |  |  |  |  |  |
| 1 to 10 (≈ 1.78 to 17.8 µM) | 1 to 10 (≈ 1.78 to 17.8 µM) | 1 to 10 (≈ 1.78 to 17.8 µM) | < 1 | 1 to 10 (≈ 1.78 to 17.8 µM) | < 1 | O=C(Nc1ccc(N2CCN(c3cc(OCCO)ccn3)CC2)cc1)C(=O)c1c(-c2ccccc2)cc2ccccn12 [Example 89, N-(4-{4-[4-(2-Hydroxy-ethoxy)-pyridin-2-yl]-piperazin-1-yl}-phenyl)-2-oxo-2-(2-phenyl-indolizin-3-yl)-acetamide] |  |  |  |  |  |  |
